The source of these data is BindingDB's records for PubMed 9454827 (Sibia Neurosciences, 1998).

Test [1] addresses Neuronal acetylcholine receptor subunit alpha-2 (Homo sapiens, UniProt Q15822).
Test [2] deals with Neuronal acetylcholine receptor subunit alpha-4 (Homo sapiens, UniProt P43681).
Test [3] has as its target Neuronal acetylcholine receptor subunit alpha-3 (Homo sapiens, UniProt P32297).

Chain of Neuronal acetylcholine receptor subunit alpha-4 (P43681 whole entry): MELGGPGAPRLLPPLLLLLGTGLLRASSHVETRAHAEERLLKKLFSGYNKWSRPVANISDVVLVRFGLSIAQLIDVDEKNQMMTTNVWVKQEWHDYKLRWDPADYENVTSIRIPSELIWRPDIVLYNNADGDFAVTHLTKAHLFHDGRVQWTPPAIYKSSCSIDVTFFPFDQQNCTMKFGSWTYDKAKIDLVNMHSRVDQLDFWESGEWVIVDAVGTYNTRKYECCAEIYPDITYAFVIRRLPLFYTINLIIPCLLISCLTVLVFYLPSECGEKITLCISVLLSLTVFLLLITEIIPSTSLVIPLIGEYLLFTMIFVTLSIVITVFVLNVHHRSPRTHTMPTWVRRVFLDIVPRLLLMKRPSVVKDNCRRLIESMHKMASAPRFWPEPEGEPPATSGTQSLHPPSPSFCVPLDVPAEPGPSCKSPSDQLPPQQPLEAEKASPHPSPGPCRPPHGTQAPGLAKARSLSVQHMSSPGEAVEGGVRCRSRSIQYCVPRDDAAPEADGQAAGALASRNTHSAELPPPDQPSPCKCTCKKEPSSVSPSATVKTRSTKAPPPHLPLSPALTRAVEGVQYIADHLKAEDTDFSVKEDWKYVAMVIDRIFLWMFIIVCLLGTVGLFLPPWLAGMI
Chain of Neuronal acetylcholine receptor subunit alpha-2 (Q15822 whole entry): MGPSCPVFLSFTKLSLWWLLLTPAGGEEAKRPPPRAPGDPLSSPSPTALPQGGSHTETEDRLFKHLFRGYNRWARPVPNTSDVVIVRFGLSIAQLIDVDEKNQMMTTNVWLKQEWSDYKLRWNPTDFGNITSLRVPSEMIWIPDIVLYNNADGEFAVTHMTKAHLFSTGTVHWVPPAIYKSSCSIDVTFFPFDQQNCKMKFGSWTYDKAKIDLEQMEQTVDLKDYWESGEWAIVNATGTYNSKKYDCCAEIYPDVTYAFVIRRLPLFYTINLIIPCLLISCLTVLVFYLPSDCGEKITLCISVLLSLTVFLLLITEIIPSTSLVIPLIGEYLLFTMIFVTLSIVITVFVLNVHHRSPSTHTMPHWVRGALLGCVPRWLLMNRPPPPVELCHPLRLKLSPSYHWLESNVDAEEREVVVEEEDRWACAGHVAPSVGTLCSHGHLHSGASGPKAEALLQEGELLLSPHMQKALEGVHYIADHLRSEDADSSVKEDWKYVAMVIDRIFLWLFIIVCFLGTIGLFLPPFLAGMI
Chain of Neuronal acetylcholine receptor subunit alpha-3 (P32297 whole entry): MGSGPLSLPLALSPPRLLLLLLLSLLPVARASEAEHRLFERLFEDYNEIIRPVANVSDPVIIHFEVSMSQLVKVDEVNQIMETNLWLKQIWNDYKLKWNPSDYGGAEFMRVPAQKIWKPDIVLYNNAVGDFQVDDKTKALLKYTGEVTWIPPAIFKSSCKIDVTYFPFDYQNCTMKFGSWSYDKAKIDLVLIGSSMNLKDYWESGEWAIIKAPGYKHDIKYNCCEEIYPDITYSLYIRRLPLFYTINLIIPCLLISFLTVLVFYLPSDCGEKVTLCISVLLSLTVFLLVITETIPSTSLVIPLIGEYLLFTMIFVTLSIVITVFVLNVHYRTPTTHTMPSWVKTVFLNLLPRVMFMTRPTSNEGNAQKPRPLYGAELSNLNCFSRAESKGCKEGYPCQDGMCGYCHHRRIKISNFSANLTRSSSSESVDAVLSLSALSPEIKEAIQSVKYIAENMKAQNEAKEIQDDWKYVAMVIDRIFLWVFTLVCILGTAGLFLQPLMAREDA

With `C[N+](C)(C)CCOC(=O)CCCCCCC(=O)OCC[N+](C)(C)C` [NSC_123990], the Ki in test [1] is 8.75 µM; in test [2] it was 1.12 µM; in test [3] it was more than 10 µM.
On to `O=c1cccc2n1C[C@H]1CNC[C@H]2C1` [(1S,9R)-7,11-diazatricyclo[7.3.1.0~2,7~]trideca-2,4-dien-6-one], for which the results for the Ki in test [2] and in test [3] were 0.515 µM and more than 10 µM, respectively.
`C[N+]1(C)CCN(c2ccccc2)CC1` [DMPP]: the Ki in test [1], in test [2] and in test [3] was more than 10 µM each time.
In the case of `CN1CCC[C@H]1c1cccnc1` [(R,S)-nicotine], the Ki in test [1] turned out to be 9.9 µM.
Consider `CNC1(C)C2CCC(C2)C1(C)C` (stereo not given) [Methyl-(2,3,3-trimethyl-bicyclo[2.2.1]hept-2-yl)-amine(Mecamylamine)], for which the Ki amounted to 3.06 µM in test [1] and 0.56 µM in test [2].
In turn, `CO[C@@H]1CC=C2CCN3CCC4=C(CC(=O)OC4)[C@@]23C1` yielded a Ki in test [1] of 5.09 µM.
For the compound `COc1cc2c3cc1Oc1cc(ccc1O)C[C@H]1c4c(cc(OC)c(O)c4Oc4ccc(cc4)C[C@@H]3N(C)CC2)CC[N+]1(C)C` [CAS_57-94-3], the inhibitory constant (Ki) stood at 2.26 µM in test [1], 0.86 µM in test [2] and 0.73 µM in test [3].
